System: cholesterol biosynthesis (sterol synthesis, rat liver homogenate)
Test: CSI screen: incorporation of 14C-acetate into nonsaponifiable lipid by rat liver homogenate (inhibition of cholesterol biosynthesis)
Type: biochemical
Conditions: rat liver homogenate from cholestyramine-fed rats; inhibition of sterol synthesis over a one-hour period
Protocol: The ability of compounds of the present invention to inhibit the biosynthesis of cholesterol was measured by a method (designated CSI screen) which utilizes the procedure described by R. E. Dugan et al, Archiv. Biochem. Biophys., (1972), 152, 21-27. In this method, the level of HMG-CoA enzyme activity in standard laboratory rats is increased by feeding the rats a chow diet containing 5cholestyramine for four days, after which the rats are sacrificed.
The rat livers are homogenized, and the incorporation of 14C-acetate into nonsaponifiable lipid by the rat liver homogenate is measured. The micromolar concentration of compound required for 50inhibition of sterol synthesis over a one-hour period is measured, and expressed as an IC50 value.

CC(C)c1nc2ccc(Cl)cc2c(-c2ccc(F)cc2)c1/C=C/[C@@H]1C[C@@H](O)CC(=O)O1 (relative stereo) [[4α,6β(E)]6-[2-[6-Chloro-4-(4-fluorophenyl)-2-(1-methylethyl)-3-quinolinyl]ethenyl]tetrahydro-4-hydroxy-2H-pyran-2-one]
IC50: 0.032 µM

Cc1nc2ccc(Cl)cc2c(-c2ccc(F)cc2)c1/C=C/[C@@H]1C[C@@H](O)CC(=O)O1 (relative stereo) [CHCH, 4-Fluorophenyl, CH3, H, Cl, H, H, [4α,6β(E)]-6[-2-[6-Chloro-4-(4-fluorophenyl)-2-methyl-3-quinolinyl]ethenyl]-tetrahydro-4-hydroxy-2H-pyran-2-one]
IC50: 0.35 µM

Reference: US4761419A, “6-(((substituted)quinolinyl)ethyl)-and ethenyl)tetrahydro-4-hydroxypyran-2-one inhibitors of cholesterol biosynthesis” (Warner-Lambert Company, priority 1987, dated 1988)
